Tested on: leukotriene B4 (LTB4) formation in human granulocytes
Assay: inhibitory action on leukotriene B4 (LTB4) formation induced by the calcium ionophor A 23-187 in human granulocytes
Assay type: cell-based
Conditions: 10 min, 10^7 cells per ml, 10 minutes at 37° C. with compound, then 10 minutes with A 23 187 (final concentration 1 μm), HPLC, 280 nm, 2 experiments per concentration, read-out: concentration which led to a 50% inhibition (IC50) of LTB4 formation
Method: To investigate the pharmacological properties of the substances according to the invention, their inhibitory action on leukotriene B4 (LTB4) formation induced by the calcium ionophor A 23-187 was measured. For this, human granulocytes were washed, the cell count was adjusted to 10^7 cells per ml and the cells were incubated for 10 minutes at 37° C. with the compounds according to the invention, such as, for example, 1-(5-(2-quinolinylmethoxy)-2-thienyl)-1-hexanone (compound according to Example 3) or alpha-pentyl-5-(2-quinolinylmethoxy)-2-thiophenemethanol (compound according to Example 5), which had been dissolved to 10^-2 M in dimethylsulfoxide and diluted to the desired concentration with physiological NaCl. The cells were then incubated for a further 10 minutes, after addition of A 23 187 (final concentration 1 μm). The reaction was stopped by addition of glacial acetic acid. The mixture was centrifuged, the supernatant was pipetted off and prostaglandin B2 was added as an internal standard.
The lipid fraction was resolved via HPLC, LTB4 and its 20--OH-- and 20--COOH-metabolites being determined photometrically at 280 nm.
2 experiments were carried out for each concentration value of the substances according to the invention and the concentration which led to a 50% inhibition (IC50) of LTB4 formation was determined for each substance. […]

Structure (SMILES): CCCCCC(=O)c1ccc(OCc2ccc3ccccc3n2)s1 [Example 3, 1-[5-(2-Quinolinylmethoxy)-2-thienyl]-1-hexanone]
- IC50: 0.2 µM

Structure (SMILES): CCCCCC(O)c1ccc(OCc2ccc3ccccc3n2)s1 (stereo not drawn) [Example 5, α-Pentyl-5-(2-quinolinylmethoxy)-2-thiophenemethanol]
- IC50: 1 µM
